Test results: patent US20230295162A1 (EÖTVÖS LORÁND TUDOMÁNYEGYETEM, priority 2020, published 2023)
Like-named read-outs stand apart in the source and are kept apart here.

Tests used:
[1] = system: Panc1 pancreatic cancer cell line; test: CellTiter-Glo IC50 (Example 19); type: cell-based; settings: Homo sapiens, PANC-1, 72 h
How it was run: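 Cells were seeded at 1000 cells/well and kept at 37 °C, 5% CO2. After compound treatment, viability was read by CellTiter-Glo luminescence as % of untreated control. IC50 came from a non-linear log(inhibitor) vs response fit with variable slope.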

[2] = system: Detroit 562 cell line; test: Additional in vitro IC50 tests (Table 3); type: cell-based; settings: Homo sapiens
How it was run: (§1)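 Cells at 1000/well, viability by CellTiter-Glo luminescence after compound treatment, as % of untreated control. IC50 from variable-slope log(inhibitor) vs response nonlinear regression.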

[3] = system: EBC-1 cell line; test: Additional in vitro IC50 tests (Table 3); type: cell-based; settings: Homo sapiens
How it was run: as §1

[4] = system: Fadu cell line; test: Additional in vitro IC50 tests (Table 3); type: cell-based; settings: Homo sapiens
How it was run: as §1

[5] = system: H2228 cell line; test: Additional in vitro IC50 tests (Table 3); type: cell-based; settings: Homo sapiens, NCI-H2228
How it was run: as §1

[6] = system: SCC-25 cell line; test: Additional in vitro IC50 tests (Table 3); type: cell-based; settings: Homo sapiens
How it was run: as §1

[7] = system: Capan-1 (pancreas, adenocarcinoma) cells; test: Cell viability assay, CellTiter-Glo (Example 21); type: cell-based, human; settings: 72 h treatment
How it was run: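 Capan-1 cells were seeded at 1000 cells/well in flat-bottomed white 96 well plates (BRANDplates®), with density optimized for cell size and growth rate. Following compound treatment, viability was measured with the CellTiter-Glo® luminescent assay (Promega) per the manufacturer's instructions, reading luminescence on a BioTek Synergy 2 Multi-Mode Reader.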

[8] = system: DU 145 (prostate, carcinoma) cells; test: Cell viability assay, CellTiter-Glo (Example 21); type: cell-based, human; settings: 72 h
How it was run: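 DU 145 cancer cell viability was assessed with the CellTiter-Glo® luminescent assay (Promega, Madison, WI, USA), following the manufacturer's instructions. Cells were seeded at 1000 cells/well in flat-bottomed white 96 well plates, and after treatment luminescence was read on a BioTek Synergy 2 Multi-Mode Reader.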

[9] = system: Detroit 562 (pharynx, carcinoma) cells; test: Cell viability assay, CellTiter-Glo (Example 21); type: cell-based, human; settings: 72 h treatment
How it was run: (§2)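 Seeding density per line: Panc-1 750, FaDu 1000, Detroit 562 and MDA-MB-453 1500 cells/well. Viability after treatment read by CellTiter-Glo luminescence; dose-response curves fitted by four-parameter variable-slope non-linear regression.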

[10] = system: EBC-1 (lung, squamous cell carcinoma) cells; test: Cell viability assay, CellTiter-Glo (Example 21); type: cell-based, human; settings: 72 h treatment
How it was run: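 EBC-1 lung squamous cell carcinoma cells were seeded at 1000 cells/well in flat-bottomed white 96 well plates. After compound treatment, viability was measured with the CellTiter-Glo luminescent assay following the manufacturer's instructions, and luminescence was read on a BioTek Synergy 2 Multi-Mode microplate reader.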

[11] = system: FaDu (pharynx, squamous cell carcinoma) cells; test: Cell viability assay, CellTiter-Glo (Example 21); type: cell-based, human; settings: 72 h treatment
How it was run: as §2

[12] = system: LNCaP (prostate, carcinoma) cells; test: Cell viability assay, CellTiter-Glo (Example 21); type: cell-based, human; settings: 72 h
How it was run: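 LNCaP prostate carcinoma cell viability was assessed with the CellTiter-Glo® luminescent assay (Promega), following the manufacturer's instructions. Cells were seeded at 1500 cells/well into flat-bottomed white 96 well plates, treated, and then luminescence was read on a BioTek Synergy 2 Multi-Mode Reader. Dose-response curves were fitted in GraphPad Prism 8.4.2 by four-parameter variable-slope non-linear regression.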

[13] = system: MDA-MB-231 (breast, adenocarcinoma) cells; test: Cell viability assay, CellTiter-Glo (Example 21); type: cell-based, human; settings: 72 h treatment
How it was run: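 MDA-MB-231 breast adenocarcinoma cells were seeded at 1500 cells/well in flat-bottomed white 96 well plates (BRANDplates®, cat. no.: 781965). Following compound exposure, viability was assessed with the CellTiter-Glo® luminescent assay (Promega) following the manufacturer's protocol, and luminescence was read on a BioTek Synergy 2 Multi-Mode Reader.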

[14] = system: MDA-MB-453 (breast, carcinoma) cells; test: Cell viability assay, CellTiter-Glo (Example 21); type: cell-based, human; settings: 72 h treatment
How it was run: as §2

[15] = system: MIA PaCa-2 (pancreas, carcinoma) cells; test: Cell viability assay, CellTiter-Glo (Example 21); type: cell-based, human; settings: 72 h treatment
How it was run: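 MIA PaCa-2 pancreatic carcinoma cells were seeded at 1000 cells/well in flat-bottomed white 96 well plates (BRANDplates®, cat. no.: 781965) and treated with compound. Viability was then determined with the CellTiter-Glo® luminescent cell viability assay (Promega) following the manufacturer's instructions, with luminescence read on a BioTek Synergy 2 Multi-Mode Reader.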

[16] = system: PC-3 (prostate, adenocarcinoma) cells; test: Cell viability assay, CellTiter-Glo (Example 21); type: cell-based, human; settings: 72 h treatment
How it was run: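 PC-3 prostate adenocarcinoma cells were seeded at 1000 cells/well in flat-bottomed white 96 well plates and treated with compounds. Viability was then determined with the CellTiter-Glo® luminescent assay (Promega) following the manufacturer's instructions, with luminescence read on a BioTek Synergy 2 Multi-Mode Reader.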

[17] = system: Panc-1 (pancreas, carcinoma) cells; test: Cell viability assay, CellTiter-Glo (Example 21); type: cell-based, human; settings: 72 h treatment
How it was run: as §2

[18] = system: SCC-25 (tongue, squamous cell carcinoma) cells; test: Cell viability assay, CellTiter-Glo (Example 21); type: cell-based, human; settings: 72 h treatment
How it was run: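 SCC-25 tongue squamous cell carcinoma cells were seeded at 1000 cells/well in flat-bottomed white 96 well plates, treated with compound, and viability was then determined with the CellTiter-Glo luminescent assay (Promega) following the manufacturer's instructions. Luminescence was read on a BioTek Synergy 2 Multi-Mode Reader.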

[19] = system: Panc-1 human cell line; test: Cytotoxicity on Panc-1, xCELLigence SP, IC50 after 24 h, 48 h, 72 h and 96 h (Example 22)

O=C1C2=C(CCN(Cc3cc(F)cc(F)c3)C2)N2CCN=C2N1Cc1ccc(Cl)cc1 [I/124, 4-(4-Chlorobenzyl)-7-(3,5-difluorobenzyl)-2,4,6,7,8,9-hexahydroimidazo[1,2-a]pyrido[3,4-e]pyrimidin-5(1H)-one]
IC50 [1]: 2 nM
IC50 [2]: < 1 nM
IC50 [3]: 3 nM
IC50 [4]: 2 nM
IC50 [5]: 3 nM
IC50 [6]: 4 nM
Capan-1 (pancreas, adenocarcinoma) cell viability (% of control) ([7]; 3.7 nM): 88.5 ± 1.8 % of control
Capan-1 (pancreas, adenocarcinoma) cell viability (% of control) ([7]; 11.1 nM): 35.3 ± 3.1 % of control
Capan-1 (pancreas, adenocarcinoma) cell viability (% of control) ([7]; 100 nM): 33.6 ± 1.1 % of control
Capan-1 (pancreas, adenocarcinoma) cell viability (% of control) ([7]; 300 nM): 34.6 ± 2.4 % of control
DU 145 cell viability ([8]; 3.7 nM): 10.0 ± 1.4 % of control
DU 145 cell viability ([8]; 11.1 nM): 7.0 ± 1.1 % of control
DU 145 cell viability ([8]; 100 nM): 8.0 ± 1.0 % of control
DU 145 cell viability ([8]; 300 nM): 7.7 ± 1.8 % of control
Detroit 562 (pharynx, carcinoma) cell viability (% of control) ([9]; 3.7 nM): 29.4 ± 4.9 % of control
Detroit 562 (pharynx, carcinoma) cell viability (% of control) ([9]; 11.1 nM): 27.8 ± 3.6 % of control
Detroit 562 (pharynx, carcinoma) cell viability (% of control) ([9]; 100 nM): 28.3 ± 3.6 % of control
Detroit 562 (pharynx, carcinoma) cell viability (% of control) ([9]; 300 nM): 31.5 ± 3.7 % of control
EBC-1 (lung, squamous cell carcinoma) cell viability (% of control) ([10]; 3.7 nM): 70.9 ± 8.3 % of control
EBC-1 (lung, squamous cell carcinoma) cell viability (% of control) ([10]; 11.1 nM): 25.3 ± 0.7 % of control
EBC-1 (lung, squamous cell carcinoma) cell viability (% of control) ([10]; 100 nM): 22.4 ± 0.5 % of control
EBC-1 (lung, squamous cell carcinoma) cell viability (% of control) ([10]; 300 nM): 23.5 ± 1.3 % of control
FaDu (pharynx, squamous cell carcinoma) cell viability (% of control) ([11]; 3.7 nM): 45.6 ± 20.7 % of control
FaDu (pharynx, squamous cell carcinoma) cell viability (% of control) ([11]; 11.1 nM): 26.1 ± 6.2 % of control
FaDu (pharynx, squamous cell carcinoma) cell viability (% of control) ([11]; 100 nM): 24.5 ± 4.6 % of control
FaDu (pharynx, squamous cell carcinoma) cell viability (% of control) ([11]; 300 nM): 24.7 ± 5.0 % of control
LNCaP cell viability ([12]; 3.7 nM): 20.8 ± 2.0 % of control
LNCaP cell viability ([12]; 11.1 nM): 13.3 ± 1.6 % of control
LNCaP cell viability ([12]; 100 nM): 12.7 ± 0.8 % of control
LNCaP cell viability ([12]; 300 nM): 13.0 ± 0.7 % of control
MDA-MB-231 (breast, adenocarcinoma) cell viability (% of control) ([13]; 3.7 nM): 82.4 ± 7.2 % of control
MDA-MB-231 (breast, adenocarcinoma) cell viability (% of control) ([13]; 11.1 nM): 59.4 ± 4.5 % of control
MDA-MB-231 (breast, adenocarcinoma) cell viability (% of control) ([13]; 100 nM): 55.9 ± 5.3 % of control
MDA-MB-231 (breast, adenocarcinoma) cell viability (% of control) ([13]; 300 nM): 54.2 ± 2.4 % of control
MDA-MB-453 (breast, carcinoma) cell viability (% of control) ([14]; 3.7 nM): 37.9 ± 3.2 % of control
MDA-MB-453 (breast, carcinoma) cell viability (% of control) ([14]; 11.1 nM): 33.5 ± 1.8 % of control
MDA-MB-453 (breast, carcinoma) cell viability (% of control) ([14]; 100 nM): 31.2 ± 2.2 % of control
MDA-MB-453 (breast, carcinoma) cell viability (% of control) ([14]; 300 nM): 30.9 ± 1.4 % of control
MIA PaCa-2 (pancreas, carcinoma) cell viability (% of control) ([15]; 3.7 nM): 33.5 ± 12.1 % of control
MIA PaCa-2 (pancreas, carcinoma) cell viability (% of control) ([15]; 11.1 nM): 18.9 ± 7.1 % of control
MIA PaCa-2 (pancreas, carcinoma) cell viability (% of control) ([15]; 100 nM): 18.7 ± 7.1 % of control
MIA PaCa-2 (pancreas, carcinoma) cell viability (% of control) ([15]; 300 nM): 18.0 ± 7.3 % of control
PC-3 (prostate, adenocarcinoma) cell viability (% of control) ([16]; 3.7 nM): 46.9 ± 4.2 % of control
PC-3 (prostate, adenocarcinoma) cell viability (% of control) ([16]; 11.1 nM): 33.9 ± 3.3 % of control
PC-3 (prostate, adenocarcinoma) cell viability (% of control) ([16]; 100 nM): 32.8 ± 3.2 % of control
PC-3 (prostate, adenocarcinoma) cell viability (% of control) ([16]; 300 nM): 32.7 ± 14.4 % of control
Panc-1 (pancreas, carcinoma) cell viability (% of control) ([17]; 3.7 nM): 99.7 ± 3.0 % of control
Panc-1 (pancreas, carcinoma) cell viability (% of control) ([17]; 11.1 nM): 56.9 ± 0.2 % of control
Panc-1 (pancreas, carcinoma) cell viability (% of control) ([17]; 100 nM): 50.9 ± 0.3 % of control
Panc-1 (pancreas, carcinoma) cell viability (% of control) ([17]; 300 nM): 51.2 ± 0.4 % of control
SCC-25 (tongue, squamous cell carcinoma) cell viability (% of control) ([18]; 3.7 nM): 47.2 ± 5.8 % of control
SCC-25 (tongue, squamous cell carcinoma) cell viability (% of control) ([18]; 11.1 nM): 34.3 ± 2.0 % of control
SCC-25 (tongue, squamous cell carcinoma) cell viability (% of control) ([18]; 100 nM): 37.5 ± 1.4 % of control
SCC-25 (tongue, squamous cell carcinoma) cell viability (% of control) ([18]; 300 nM): 42.3 ± 5.2 % of control
IC50 ([19]; PANC-1, 72 h, read-out: IC50 (72 h) [nM]): 1.31 ± 0.286 nM
IC50 ([19]; PANC-1, 96 h, read-out: IC50 (96 h) [nM]): < 0.25 nM
